Results on ten molecules are retold here after PubChem BioAssay (NCI).

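Compound exposure: 48 hours, 5 concentrations, 96-well plates. The concentration for 50% growth inhibition is given as GI50. The concentration for full growth arrest is given as TGI.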 Some results are limits rather than exact numbers.

Test systems include COLO 205 colon; DU-145 prostate; MCF7 breast; OVCAR-3 ovarian; SF-295 CNS; SF-539 CNS; SR leukemia; TK-10 renal.
Common to all, as to assay: growth of human tumour cells (NCI), 48 h

Consider `COc1ccccc1Nc1ncc(-c2ccccc2)o1`, for which the GI50 in the experiment on COLO 205 colon, with DU-145 prostate, in the experiment on MCF7 breast, in the experiment on OVCAR-3 ovarian, in the experiment on SF-295 CNS and with SF-539 CNS was > 25 µM each time. Also, the GI50 with SR leukemia and in the experiment with TK-10 renal was > 25 µM throughout. Further, the TGI in the experiment with COLO 205 colon, in the experiment with DU-145 prostate, in the experiment on MCF7 breast, in the experiment with OVCAR-3 ovarian, with SF-295 CNS and in the experiment with SF-539 CNS was > 25 µM each time. Moreover, the TGI in the experiment on SR leukemia and in the experiment on TK-10 renal was > 25 µM in each case.
In the case of `COC(=O)C1=CN(CC2=CC(=O)C(C)=CC2=O)C=C(C(=O)OC)C1c1cccc(OC)c1`, the GI50 in the experiment with COLO 205 colon was 18.4 µM; with DU-145 prostate it was 16.4 µM; in the experiment on MCF7 breast, 16 µM; in the experiment with OVCAR-3 ovarian, 3.51 µM; in the experiment on SF-295 CNS, 10.3 µM; in the experiment on SF-539 CNS, 8.25 µM. Further, the GI50 was 4.74 µM with SR leukemia and 12.2 µM with TK-10 renal. Moreover, the TGI is > 66.6 µM in the experiment on COLO 205 colon; 33.3 µM in the experiment on DU-145 prostate; > 100 µM with MCF7 breast; 12.3 µM in the experiment on OVCAR-3 ovarian; 26.4 µM in the experiment with SF-295 CNS; 23.3 µM in the experiment on SF-539 CNS. Also, the TGI with SR leukemia came to 35 µM; in the experiment with TK-10 renal, 25.9 µM.
Turning to `C=C1C(=O)OC2CC(C)C(C(O)CC(C)O)=CCC12` (stereo unspecified), the TGI in the experiment on COLO 205 colon was 24.6 µM; with DU-145 prostate it was 30.4 µM; with MCF7 breast, 28.1 µM; with OVCAR-3 ovarian, 25.2 µM; with SF-295 CNS, > 100 µM; in the experiment on SF-539 CNS, 31.3 µM. Further, the TGI in the experiment with SR leukemia is 29.5 µM; in the experiment on TK-10 renal it was 23.3 µM.
In the case of `O=[N+]([O-])c1ccc(CI)cc1`, the GI50 in the experiment on COLO 205 colon is 2 µM; in the experiment on DU-145 prostate, 2.78 µM; in the experiment on MCF7 breast it was 3.08 µM; in the experiment on OVCAR-3 ovarian it was 2.4 µM; in the experiment on SF-295 CNS it was 3.76 µM; with SF-539 CNS it was 2.66 µM. For the same molecule, the GI50 is 2.24 µM in the experiment with SR leukemia and 1.85 µM with TK-10 renal. Besides, the TGI in the experiment on COLO 205 colon was 3.76 µM; in the experiment with DU-145 prostate, 7.08 µM; in the experiment on MCF7 breast, 17.2 µM; in the experiment with OVCAR-3 ovarian, 5.41 µM; in the experiment on SF-295 CNS, 13.7 µM; in the experiment on SF-539 CNS, 8.19 µM. In addition, the TGI in the experiment with SR leukemia was determined as 10.3 µM; with TK-10 renal, 3.32 µM.
Take `CC12CCC3c4ccc(O)cc4CCC3C1C/C(=N\O)C2O` (stereo unspecified): the TGI in the experiment with COLO 205 colon, with DU-145 prostate, in the experiment with MCF7 breast, in the experiment with OVCAR-3 ovarian, in the experiment on SF-295 CNS and with SF-539 CNS was > 100 µM each time. Also, the TGI in the experiment with SR leukemia and in the experiment on TK-10 renal was > 100 µM each time.
As to `O=S(=O)(Nc1ccc(Cl)cc1Cl)c1ccc(-c2cnc(C3CC3)o2)cc1`, the GI50 with COLO 205 colon is 1.13 µM; in the experiment with DU-145 prostate, 2.6 µM; in the experiment on MCF7 breast, 0.35 µM; in the experiment on OVCAR-3 ovarian, 0.439 µM; in the experiment on SF-295 CNS, 0.335 µM; with SF-539 CNS, 0.414 µM. Also, the GI50 in the experiment with SR leukemia is 0.42 µM; with TK-10 renal, 5.03 µM. Moreover, the TGI in the experiment on COLO 205 colon is 11.1 µM; with DU-145 prostate, > 100 µM; with MCF7 breast, 41.2 µM; with OVCAR-3 ovarian it was 15 µM; in the experiment on SF-295 CNS, 3.4 µM; in the experiment with SF-539 CNS, 7.55 µM. In addition, the values for the TGI with SR leukemia and in the experiment on TK-10 renal were > 58.9 µM and 79.6 µM, respectively.
`O=C(NNc1ccccc1)C(=O)NNc1ccccc1`: the GI50 was 2.73 µM with COLO 205 colon; 20.8 µM with DU-145 prostate; 5.67 µM in the experiment on MCF7 breast; 17.7 µM in the experiment with OVCAR-3 ovarian; 2.1 µM in the experiment on SF-295 CNS; 2.63 µM in the experiment with SF-539 CNS. In addition, the GI50 in the experiment on SR leukemia and with TK-10 renal was 0.919 µM throughout. The TGI is 48.5 µM in the experiment on COLO 205 colon; > 100 µM in the experiment on DU-145 prostate; > 100 µM in the experiment on MCF7 breast; > 100 µM in the experiment on OVCAR-3 ovarian; > 100 µM in the experiment with SF-295 CNS; 14.5 µM in the experiment on SF-539 CNS. The TGI in the experiment with SR leukemia and in the experiment on TK-10 renal was > 100 µM in each case.
`COc1cc(/C=C\c2cc(OC)c(OC)c(OC)c2)cc(N/C=C\C(=O)c2cc(OC)c(OC)c(OC)c2)c1OC`: the GI50 is 2.31 µM in the experiment on COLO 205 colon; 3.64 µM with DU-145 prostate; 2.34 µM in the experiment on MCF7 breast; 2.31 µM in the experiment with OVCAR-3 ovarian; 2.4 µM in the experiment with SF-295 CNS; 1.92 µM in the experiment on SF-539 CNS. For the same molecule, the GI50 with SR leukemia was 2.03 µM; in the experiment on TK-10 renal, 5.93 µM. The TGI was 5.7 µM with COLO 205 colon; > 100 µM in the experiment on DU-145 prostate; > 100 µM with MCF7 breast; 5.82 µM in the experiment with OVCAR-3 ovarian; > 100 µM with SF-295 CNS; 4.51 µM in the experiment on SF-539 CNS. In addition, the TGI with SR leukemia and with TK-10 renal was > 100 µM in each case.
As to `CCN(Cc1ccc(F)cc1)c1ccc(CO)c(Br)c1`, the GI50 in the experiment on COLO 205 colon is 0.966 µM; in the experiment on DU-145 prostate, 16.5 µM; in the experiment with MCF7 breast, 0.15 µM; with OVCAR-3 ovarian it was 0.238 µM; in the experiment with SF-295 CNS it was 0.148 µM; in the experiment on SF-539 CNS, 15 µM. Besides, the GI50 with SR leukemia is 17 µM; with TK-10 renal it was 0.021 µM. Also, the TGI in the experiment on COLO 205 colon was 4.98 µM; with DU-145 prostate it was > 53.1 µM; in the experiment on MCF7 breast, 16.1 µM; in the experiment on OVCAR-3 ovarian, 0.868 µM; in the experiment with SF-295 CNS, 2.3 µM; in the experiment with SF-539 CNS it was 29.4 µM. The TGI in the experiment on SR leukemia was 46.4 µM; in the experiment with TK-10 renal it was 0.101 µM.
With `CC(C)=CCc1cc2c(cc1O)OC[C@H]1c3cc4c(cc3O[C@@H]21)OCO4`, the TGI is > 100 µM with COLO 205 colon; > 100 µM in the experiment on DU-145 prostate; 58.7 µM in the experiment on MCF7 breast; > 100 µM with OVCAR-3 ovarian; > 100 µM in the experiment on SF-295 CNS; > 100 µM in the experiment with SF-539 CNS. For the same molecule, the TGI in the experiment on SR leukemia and with TK-10 renal was > 100 µM in each case.
